Experimental data as given in PMC7969873 (Cell Reports, 2021).
Like-named read-outs stand apart in the source and are kept apart here.

Assays:
[1] = test system: ATR; design: method as in vendor Selleckchem; details: HT29 cells; ref vendor Selleckchem; read-out: IC50, ATR inhibition; cited from earlier work
[2] = design: method as in earlier work; details: cancer setting, phases 1 and 2, ref Konstantinopoulos et al., 2020, Yap et al., Thomas et al., 2018; cited from earlier work
[3] = test system: SARS-CoV-2; test: SARS-CoV-2 replication kinetics in Vero E6 cells (RT-qPCR genome copies, western blot); format: cell-based; details: for viral genome and protein production: from 8 h onward
[4] = test system: SARS-CoV-2; test: SARS-CoV-2 infection of HEK293-ACE2 cells (IFA); format: cell-based; details: 100 nM, 48 hpi
[5] = HeLa-ACE2 uninfected host cell cytotoxicity counter screen; format: cell-based; details: human, uninfected HeLa-ACE2 cells; read-out: median cytotoxic concentration (CC50)
Description: Compounds were acoustically transferred into 1,536-well μclear plates (Greiner Part. No. 789091). HeLa-ACE2 cells were maintained as described for the infection assay and seeded in the assay-ready plates at 400 cells/well in DMEM with 2% FBS and plates were incubated for 24 hours at 37°C 5% CO2. To assess cell viability, the Image-iT DEAD green reagent (Thermo Fisher) was used according to manufacturer instructions. Cells were fixed with 4% paraformaldehyde, and counterstained with DAPI.

[6] = test system: Calu-3 cells; test: Cell viability assay (MTT) in Calu-3 cells; format: cell-based, human
Description: Calu-3 and A549-ACE2 were seeded in 96-well plates with 3.5 × 10^5 cells/ml, 100 μL per well, for 24 h. The compounds to be tested or pure DMSO as […] control were serially diluted in CoV infection medium (DMEM, supplemented with 1 % L-glu, 1 % P/S and 2 % FBS) to obtain 5-fold of the desired final concentrations. The growth medium was removed from the cells and replaced with 80 μl/well of fresh infection medium. Subsequently, 20 μL of the diluted compounds were added in quadruplicates for each concentration (i.e., 5-fold dilution to reach the final concentrations). Cells were incubated for 48 h at 37°C (5% CO2, 96 % rH). At 48 h post treatment, cell viability was measured on a Tecan Safire 2 plate reader using the CellTiter 96® Non-Radioactive Cell Proliferation Assay (MTT) (Promega) according to manufacturer’s instructions.

[7] = test system: SARS-CoV-2; test: microbe, parasite or virus in culture; format: cell-based; details: Severe acute respiratory syndrome coronavirus 2, Calu-3 cells, read-out: IC50, SARS-CoV-2 viral titer
[8] = test system: hiPSC-CMs; test: Cardiomyocyte beating / in vitro cardiotoxicity in hiPSC-CMs; format: cell-based, human; details: hiPSC-CMs; 250 nM
Description: Thus, we used the human-induced pluripotent stem-cell-derived cardiomyocyte (hiPSC-CM) system for antiviral drug testing against SARS-CoV-2. […] Thus, this cardiomyocyte system is useful for antiviral drug testing against SARS-CoV-2. […] The inhibition of virus production by berzosertib was evaluated by quantifying the infectious virus (TCID50) in the supernatant at various time points (Figure 2B). […] Infection of cardiomyocytes with SARS-CoV-2 was confirmed by specific staining of cardiac troponin T (cTnT) and viral spike proteins (Figure 2E). Untreated SARS-CoV-2-infected cells had infection-mediated cell injury with disrupted troponin T fibers.

[9] = test system: SARS-CoV-2; test: microbe, parasite or virus in culture; format: cell-based
[10] = test system: SARS-CoV-2; format: cell-based; details: hiPSC-CMs, 250 nM
[11] = test system: human primary lung cells; test: Toxicity in human primary lung cells; format: cell-based
[12] = test system: SARS-CoV-2; test: microbe, parasite or virus in culture; format: cell-based; details: Vero E6 cells; IFA; read-out: IC50, inhibition of SARS-CoV-2 infectivity
[13] = test system: MERS-CoV; test: microbe, parasite or virus in culture; format: cell-based; details: Middle East respiratory syndrome-related coronavirus, Calu-3, read-out: IC50, MERS-CoV viral titer
[14] = test system: SARS-CoV-1; test: microbe, parasite or virus in culture; format: cell-based; details: Severe acute respiratory syndrome coronavirus, Calu-3, read-out: IC50, SARS-CoV-1 viral titer
[15] = test system: SARS-CoV-2; test: microbe, parasite or virus in culture; format: cell-based; details: for IC50: Severe acute respiratory syndrome coronavirus 2, A549-ACE2, 24 h, 24 h, read-out: IC50, SARS-CoV-2 immunostaining signal
[16] = test system: IL6; test: IL6 gene expression in SARS-CoV-2-infected Vero E6 cells (RT-qPCR); format: cell-based
[17] = test system: CHK1 phosphorylation (pCHK1); test: CHK1 phosphorylation in Vero E6 cells (western blot); format: cell-based
Description: Cells were lysed in 50 mM Tris pH 7.4, 1% NP-40, 0.25% sodium deoxycholate, 1 mM EDTA, 150 mM NaCl, 1 mM Na3VO4, […], 1mM PMSF, 2 mg ml^-1 aprotinin, 2 mg ml^-1 leupeptin and 0.7 mg ml^-1 pepstatin or Laemmli Sample Buffer (Bio Rad, Hercules, CA). Cell lysates were resolved by SDS-PAGE using 10% gradient gels and transferred to a 0.2 μm PVDF membrane. Subsequently, the membranes were blocked with 5% skim milk and 0.1% Tween-20 in 1x TBST (0.1% Tween-20) at room temperature for 1 hour. The membranes were then probed with respective monoclonal antibodies and detected by Thermo Scientific SuperSignal West Femto Maximum Sensitivity Substrate.

[18] = test system: SARS-CoV-2; format: cell-based; details: 250 nM, Vero E6 cells, 48 h
[19] = test system: SARS-CoV-2

SMILES: CNCc1ccc(-c2cc(-c3nc(-c4ccc(S(=O)(=O)C(C)C)cc4)cnc3N)on2)cc1 [Berzosertib]
- IC50 [1]: 19 nM
- tolerability in oncology clinical studies [2]: well tolerated
- number of viral genome copies at 2 hpi (entry) ([3]; 2 hpi): not affected
- viral genome and protein production [3]: inhibited
- viral genome and protein production ([3]; listed as berzosertib): significantly reduced
- inhibition of virus replication [4]: complete inhibition
- CC50 at 24 h [5]: 3890 nM
- concentration with detectable toxicity [6]: > 50 µM
- IC50 [7]: 480 nM
- in vitro cardiotoxicity [8]: No in vitro cardiotoxicity
- inhibition of SARS-CoV-2 [9]: effective
- IC50 ([9]; Severe acute respiratory syndrome coronavirus 2, human primary lung cells): 40 nM
- virus production (infectious virus, TCID50, in supernatant) [10]: significantly reduced
- apoptotic cell death associated with viral infection ([10]; cleaved caspase-3): significantly reduced
- concentration with detectable toxicity [11]: > 50 µM
- IC50 [12]: < 25 nM
- IC50 [13]: 290 nM
- IC50 [14]: 320 nM
- combination effect (isobologram, Compusyn) [15]: synergistic
- selectivity index (SI) ([15]; A549-ACE2 cells): 204
- IC50 [15]: 240 nM
- IC50 ([15]; A549-ACE2 cells, […]): 220 ± 30 nM
- viral-mediated induction of pro-inflammatory gene IL6 [16]: reduced
- phosphorylation of CHK1 [17]: reduced
- antiviral activity (prevention of viral CPE) in primary screen [18]: antiviral activity
- median effective dose (ED50), percentage of infected cells ([19]; HeLa-ACE2 cells): 200 nM
- total cells per well (cytotoxic effect at active concentrations) ([19]; SARS-CoV-2-infected HeLa-ACE2 cells): did not change
